Results as given in patent US6734196B2, “Substituted pyridine or piperidine compounds” (Les Laboratoires Servier, priority 1999, dated 2004).

Compound	melting point [°C]
C[n+]1ccccc1CC(=O)c1ccccc1Br.[I-]	204 to 205
COc1ccc(C(=O)CC2CCCCN2C)cc1.I (centres unmarked)	201 to 203
CN1CCCCC1C1CCCCC1=O.I (centres unmarked)	160 to 162
C[n+]1ccccc1C=C(c1ccccc1)N1CCCC1.[I-]	200 to 202
C[n+]1c(CC(=O)c2ccccc2)cccc1CC(=O)c1ccccc1.[I-]	197 to 199
COc1ccc(C(=O)Cc2cccc[n+]2C)cc1.F[P-](F)(F)(F)(F)F	168 to 170
C[n+]1c(CC(=O)c2ccccc2)cccc1CC(=O)c1ccc(Cl)cc1.O=S(=O)([O-])C(F)(F)F	199 to 201
C[n+]1c(CC(=O)c2ccccc2)cccc1CC(=O)c1ccc(Br)cc1.[I-]	218 to 220
COc1ccc(C(=O)Cc2cccc(CC(=O)c3ccccc3)[n+]2C)cc1.O=S(=O)([O-])C(F)(F)F	193 to 195
COc1ccc(C(=O)Cc2cccc(CC(=O)c3ccc(F)cc3)[n+]2C)cc1.O=S(=O)([O-])C(F)(F)F	208 to 210
COc1ccc(C(=O)Cc2cccc(CC(=O)c3ccc(F)cc3)[n+]2C)cc1.[I-]	219 to 220
C[n+]1ccccc1CC(=O)c1ccc(Cl)cc1.F[P-](F)(F)(F)(F)F	152 to 154
C[n+]1ccccc1CC(=O)c1ccc(Cl)cc1.[I-]	212 to 214
C[n+]1ccccc1CC(=O)c1ccc(Br)cc1.[I-]	222 to 224

Next, values leading:

melting point [°C]	Compound
151 to 153	C[n+]1ccccc1C1CCCCC1=O.[I-] (centres unmarked)
217 to 218	C[n+]1ccccc1CC(=O)c1cccc(Br)c1.[I-]
182 to 184	CN1CCCCC1CC(=O)c1ccc(Br)cc1.I (centres unmarked)
134 to 136	CN1CCCCC1CC(=O)c1cccc(Br)c1.I (centres unmarked)
163.5 to 164	CN1CCCCC1CC(=O)c1ccccc1Br.I (centres unmarked)
214 to 216	C[n+]1c(C=C(c2ccccc2)N2CCOCC2)cccc1N1CCOCC1.[I-]
205 to 206	Cc1ccc(C(=O)Cc2cccc(CC(=O)c3ccccc3)[n+]2C)cc1.[I-]
213 to 215	C[n+]1c(CC(=O)c2ccccc2)cccc1CC(=O)c1ccc(Cl)cc1.[I-]
220 to 222	C[n+]1c(CC(=O)c2ccccc2)cccc1CC(=O)c1ccc(F)cc1.[I-]
214 to 216	COc1ccc(C(=O)Cc2cccc[n+]2C)cc1.[I-]
226 to 228	C[n+]1c(CC(=O)c2ccc(Cl)cc2)cccc1CC(=O)c1ccc(Br)cc1.O=S(=O)([O-])C(F)(F)F
226 to 227	C[n+]1c(CC(=O)c2ccc(Cl)cc2)cccc1CC(=O)c1ccc(Br)cc1.[I-]
203 to 205	COc1ccc(C(=O)Cc2cccc(CC(=O)c3ccccc3)[n+]2C)cc1.[I-]
192 to 193	Cc1ccc(C(=O)CC2CCCC(CC(=O)c3ccccc3)N2C)cc1.I (centres unmarked)
152 to 154	CN1C(CC(=O)c2ccccc2)CCCC1CC(=O)c1ccc(Cl)cc1.I (centres unmarked)
152 to 154	CN1C(CC(=O)c2ccccc2)CCCC1CC(=O)c1ccc(F)cc1.I (centres unmarked)
200 to 202	CN1C(CC(=O)c2ccc(Cl)cc2)CCCC1CC(=O)c1ccc(Br)cc1.I (centres unmarked)
185 to 187	C[n+]1ccccc1CC(=O)c1ccc(Br)cc1.F[P-](F)(F)(F)(F)F
